Columns and labels:
[1] = molecular target: T1, C-terminal domain (CTD) of human STING (Homo sapiens, UniProt Q86WV6); assay: STING binding FP assay I (fluorescence polarization competition binding); design: recombinant human STING protein (155-379); conditions: recombinant human STING protein (155-379), 35 nM STING, 4 nM fluorescein-labelled STING ligand (Probe 1), 20 min at room temperature
Procedure: The interaction between molecules and the C-terminal domain (CTD) of human STING was evaluated using a competition binding assay. In this assay, recombinant human STING protein (155-379) and a STING binding fluorescent probe were employed. Upon binding of the probe to STING, the rotation of the fluorescent probe is slowed due to the larger molecular size of the protein-bound complex. As a result, emitted light retains its plane of polarization, leading to an increase in fluorescence polarization. Molecules competing for the probe binding site displace the probe, which leads to rapid randomization of the polarization plane of the emitted light and a subsequent decrease in measured fluorescence polarization signal. Change in polarization was measured, allowing a comparative evaluation of the binding affinities of different compounds to the target protein.
The assay was performed in 96-well plates (ThermoFisher, cat.# 237108) containing 100 µl : 10 µL test compound in 10% DMSO and buffer A (150 mM NaCl, 50 mM HEPES pH 7.5, 1 mM DTT) + 90 µL prepared master mix solution of: 4 nM fluorescein-labelled STING ligand (Probe 1; synthesis described above) in buffer A + 0.055% Tween-20 (v/v) and 35 nM STING in buffer A. Post mixing, plates were agitated at 600 rpm and incubated for 20 min at room temperature. Subsequent measurements of the fluorescence polarization signal were made on a BioTek Synergy-H1 plate reader, using a polarization filter; excitation: 485/20 nm, emission: 528/20 nm) with a gain-setting of 75. IC50 values were determined using a standard non-linear regression four-parameter curve fit in Graphpad Prism.
Target sequence in this assay (Q86WV6 155-379): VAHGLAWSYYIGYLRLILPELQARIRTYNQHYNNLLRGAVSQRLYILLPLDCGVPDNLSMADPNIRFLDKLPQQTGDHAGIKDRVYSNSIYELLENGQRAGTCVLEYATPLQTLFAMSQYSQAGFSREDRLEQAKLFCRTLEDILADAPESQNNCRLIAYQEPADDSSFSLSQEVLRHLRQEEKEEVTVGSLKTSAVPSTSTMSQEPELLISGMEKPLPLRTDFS

[2] = molecular target: T1, C-terminal domain (CTD) of human STING; assay: STING binding TR-FRET assay (CisBio Human STING WT Binding Kit); design: purchased CisBio 64BDSTGPEG; conditions: recombinant human STING with His-tag, D2-labeled active site probe, 60 min at room temperature
Procedure: STING binding can be determined by a time-resolved FRET assay. For instance, a STING protein having a His-tag can be used. A D2-labeled active site probe can be used to accept 620 nm emission from Anti-HIS-Tb-STING. Increased fluorescence is measured at 665 nm. Molecules that compete for the probe binding site will result in a lower 665 nm signal. The assay can be performed in low-volume white 96-well plates containing 5 µL compounds in an appropriate diluent buffer. Following 60 minutes incubation at room temperature in the dark, fluorescence emission at 665 nm is measured following 330 nm xenon flash excitation. pIC50 values can be determined using a standard four parameter curve fit.
The affinity of molecules to the C-terminal domain (CTD) of human STING was determined using a commercial Human STING WT Binding Kit (CisBio, cat.# 64BDSTGPEG). In this time-resolved FRET assay, a recombinant human STING protein construct with a His-tag was employed. When bound to STING, a D2-labeled active site probe accepts the 620 nm emission from Anti-HIS-Tb-STING and an increase in fluorescence is measured at 665 nm. Molecules that compete for the probe binding site will result in a low 665 nm signal. The assay was run in CisBio low-volume white 96-well plates (catalog# 66PL96005) containing 5 µL compounds in Diluent Buffer (supplied with the CisBio kit). A solution of 1xSTING, 1x Anti-HIS-Tb and 1X D2-probe in TB detection buffer (kit supplied) was added to the plate. Plates were centrifuged for 2 min at 500 rpm, incubated for 60 min at room temperature in the dark, and then fluorescence emission at 665 nm following 330 nm xenon flash excitation on an BioTek synergy H1 multimode reader (Agilent) was measured. The plC50 values were determined using a standard four parameter curve fit in GraphPad Prism.
Target sequence in this assay (Q86WV6 135-379 limits assumed): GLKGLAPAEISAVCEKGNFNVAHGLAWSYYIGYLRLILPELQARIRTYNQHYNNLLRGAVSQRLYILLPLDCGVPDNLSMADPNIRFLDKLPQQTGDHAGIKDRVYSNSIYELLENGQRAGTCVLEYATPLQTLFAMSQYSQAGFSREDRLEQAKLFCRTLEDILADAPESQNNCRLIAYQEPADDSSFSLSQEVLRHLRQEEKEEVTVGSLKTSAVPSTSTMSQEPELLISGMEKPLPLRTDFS

[3] = molecular target: T2, STING (Homo sapiens, UniProt Q86WV6); assay: Human FB STING antagonist assay (IFN-a/b release); format: cell-based; conditions: Human skin fibroblasts, 2h pre-treatment, 300 nM GSK STING agonist (CAS number: 2138299-34-8) for 20 h, release of IFN-a/b by HEK-Blue IFN-α/β bioassay
T2 construct: endogenous in cells; host or cells: human skin fibroblasts
T2 sequence (Q86WV6 whole entry): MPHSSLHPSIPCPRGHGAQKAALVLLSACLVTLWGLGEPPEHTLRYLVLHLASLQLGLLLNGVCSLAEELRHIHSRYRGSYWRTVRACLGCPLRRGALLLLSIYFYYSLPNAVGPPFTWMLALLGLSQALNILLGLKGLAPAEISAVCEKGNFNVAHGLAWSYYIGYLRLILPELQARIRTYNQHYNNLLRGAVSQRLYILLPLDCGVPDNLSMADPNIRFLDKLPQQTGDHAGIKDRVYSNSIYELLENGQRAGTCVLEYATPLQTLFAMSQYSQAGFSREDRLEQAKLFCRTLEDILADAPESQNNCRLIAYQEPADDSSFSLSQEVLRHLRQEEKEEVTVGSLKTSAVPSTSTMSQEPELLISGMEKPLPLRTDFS
Procedure: STING antagonist activity can be determined by a human fibroblast antagonist assay. For this, human skin fibroblasts are pre-treated for 2h with a serial dilution of the compound, and are then stimulated for 20 hours with 300 nM STING agonist (e.g. from GSK, CAS number: 2138299-34-8). Supernatants are then harvested and assessed for IFN-a/b release, which indicates STING activation. IFN-a/b concentration in the supernatant is determined, e.g. using an IFN-α/β bioassay. IC50 values are calculated using a non-linear regression fitting, variable slope (4 parameters).
Human skin fibroblasts were pre-treated for 2h with a serial dilution of test compound followed by stimulation with mock or 300 nM GSK STING agonist (CAS number: 2138299-34-8). Supernatants were harvested after 20 h of STING agonist stimulation. Release of IFN-a/b was determined using HEK-Blue IFN-α/β bioassay (Invivogen). Cellular viability was assessed using Alamar Blue HS assay. IC50 values were estimated using a non-linear regression fitting, variable slope (4 parameters) in GraphPad Prism 9.3.1.

Structure (SMILES)	IC50 [1] [nM]	IC50 [2] [nM]	IC50 [3] [nM]
CCn1nc(C)cc1C(=O)N=c1n(C)c2cc(C(N)=O)ccc2n1CCC(CCn1c(=NC(=O)c2cc(C)nn2CC)n(C)c2cc(C(N)=O)ccc21)OCC(=O)O (stereo not drawn) [Example 3, (3-{5-Carbamoyl-2-[(1-ethyl-3-methyl-5-pyrazolyl)carbonylimino]-3-methyl-2,3-dihydro-1H-1,3-benzimidazol-1-yl}-1-(2-{5-carbamoyl-2-[(1-ethyl-3-methyl-5-pyrazolyl)carbonylimino]-3-methyl-2,3-dihydro-1H-1,3-benzimidazol-1-yl}ethyl)propoxy)acetic acid]	< 30	0.452	
CCn1nc(C)cc1C(=O)N=c1n(C)c2cc(C(N)=O)ccc2n1CCC(CCn1c(=NC(=O)c2cc(C)nn2CC)n(C)c2cc(C(N)=O)ccc21)OCC(=O)NC(C)C (stereo not drawn) [Example 5, 1-{3-[(N-lsopropylcarbamoyl)methoxy]-5-{5-carbamoyl-2-[(1-ethyl-3-methyl-5-pyrazolyl)carbonylimino]-3-methyl-2,3-dihydro-1H-1,3-benzimidazol-1-yl}pentyl}-2-[(1-ethyl-3-methyl-5-pyrazolyl)carbonylimino]-3-methyl-2,3-dihydro-1H-1,3-benzimidazole-5-carboxamide]	< 30	0.38	
CCn1nc(C)cc1C(=O)N=c1n(C)c2cc(C(N)=O)ccc2n1CCC(CCn1c(=NC(=O)c2cc(C)nn2CC)n(C)c2cc(C(N)=O)ccc21)OCC(=O)Nc1ccccc1 (stereo not drawn) [Example 6, 1-{3-[(N-Phenylcarbamoyl)methoxy]-5-{5-carbamoyl-2-[(1-ethyl-3-methyl-5-pyrazolyl)carbonylimino]-3-methyl-2,3-dihydro-1H-1,3-benzimidazol-1-yl}pentyl}-2-[(1-ethyl-3-methyl-5-pyrazolyl)carbonylimino]-3-methyl-2,3-dihydro-1H-1,3-benzimidazole-5-carboxamide]	< 30	0.6	7600
CCn1nc(C)cc1C(=O)N=c1n(C)c2cc(C(N)=O)ccc2n1CCC(CCn1c(=NC(=O)c2cc(C)nn2CC)n(C)c2cc(C(N)=O)ccc21)OCC(=O)N1CCOCC1 (stereo not drawn) [Example 7, 1-(5-{5-Carbamoyl-2-[(1-ethyl-3-methyl-5-pyrazolyl)carbonylimino]-3-methyl-2,3-dihydro-1H-1,3-benzimidazol-1-yl}-3-(2-morpholino-2-oxoethoxy)pentyl)-2-[(1-ethyl-3-methyl-5-pyrazolyl)carbonylimino]-3-methyl-2,3-dihydro-1H-1,3-benzimidazole-5-carboxamide]	< 30	0.267	3500
CCn1nc(C)cc1C(=O)N=c1n(C)c2cc(C(N)=O)ccc2n1CCC(CCn1c(=NC(=O)c2cc(C)nn2CC)n(C)c2cc(C(N)=O)ccc21)OCC(=O)Nc1ccncn1 (stereo not drawn) [Example 8, 1-{3-[(N-4-Pyrimidinylcarbamoyl)methoxy]-5-{5-carbamoyl-2-[(1-ethyl-3-methyl-5-pyrazolyl)carbonylimino]-3-methyl-2,3-dihydro-1H-1,3-benzimidazol-1-yl}pentyl}-2-[(1-ethyl-3-methyl-5-pyrazolyl)carbonylimino]-3-methyl-2,3-dihydro-1H-1,3-benzimidazole-5-carboxamide]	< 30		4700
CCn1nc(C)cc1C(=O)N=c1n(C)c2cc(C(N)=O)ccc2n1CCC(CCn1c(=NC(=O)c2cc(C)nn2CC)n(C)c2cc(C(N)=O)ccc21)OCC(=O)N1CCc2cc(OC)ccc2C1 (stereo not drawn) [Example 9, 1-(5-{5-Carbamoyl-2-[(1-ethyl-3-methyl-5-pyrazolyl)carbonylimino]-3-methyl-2,3-dihydro-1H-1,3-benzimidazol-1-yl}-3-[2-(6-methoxy-1,2,3,4-tetrahydro-2-isoquinolyl)-2-oxoethoxy]pentyl)-2-[(1-ethyl-3-methyl-5-pyrazolyl)carbonylimino]-3-methyl-2,3-dihydro-1H-1 ,3-benzimidazole-5-carboxamide]	< 30	0.665	13100

— patent EP4534147A1, “STING ANTAGONIST COMPOUNDS” (Sulis Therapeutics ApS, priority 2023, dated 2025)
